According to US20210340629A1, “BIOMARKERS FOR CANCER THERAPY” (The Council of the Queensland Institute of Medical Research, priority 2018, published 2021):

System: MAP1LC3B
Test: MAP1LC3B expression in excised D20 xenograft tumors (qRT-PCR, immunohistochemistry)
Assay type: in vivo, SCID mice
Conditions: 5 mg/kg
Description: Quantitative RT-PCR and ChIP assays were conducted as previously described (Lee et al. (2010) Mol Cell 39, 71-85). Briefly, total RNA was isolated from either the tumor cells or from xenografts using Trizol (Invitrogen) and reverse transcription was performed from 2 μg of total RNA using the Superscript III cDNA synthesis system (Invitrogen). The abundance of mRNA was detected by an ABI VIIA7 system with SYBR Green Master Mix (Life Technologies). Primer pairs were designed to amplify 90-150 bp mRNA specific fragments and were confirmed as unique products by melting curve analysis. The quantity of mRNA was calculated using the ΔΔCt method and normalized to HPRT. All reactions were performed in triplicates.
Groups of 8 SCID mice per treatment group were used for xenograft studies to ensure adequate power to detect biological differences. All experiments were approved by the QIMR Berghofer Medical Research Institute Animal Ethics Committee. […] Tumor volumes (width2×length/2) were measured using a digital calliper, and presented as mean±SD. […]
Tumor sections were fixed in 4% paraformaldehyde. […] Aperio ImageScope software was used for imaging and quantitation of 5 non-overlapping tumor regions and evaluating the number of positive pixels per unit area in each region. Empty areas were manually excluded from quantification.
Quantitative RT-PCR was performed as described above.

COc1cc2c(NC3CCN(C(C)C)CC3)nc(N3CCC(F)(F)CC3)nc2cc1OCCCN1CCCC1 [UNC0642]
expression of the MAP1LC3B gene in tumors (quantitative real time PCR) (compared to the vehicle treated group, P<0.01, FIG. 10C): statistically significant increase
level of MAP1LC3B in the excised tumors (immunohistochemical analysis) (compared to vehicle, FIG. 10D): significantly increased
